Measurements from patent US20230226062A1, “HETEROCYCLIC COMPOUNDS AS IMMUNOMODULATORS” (Incyte Corporation, priority 2016, published 2023).

Target: T1, PD-1/PD-L1 (Homo sapiens, UniProt Q9NZQ7)
T1 construct: Recombinant human PD-L1 protein (19-238) with a His-tag at the C-terminus; purchased AcroBiosystems PD1-H5229 (PD-L1); PD1-H5257 (PD-1)
Experiment: PD-1/PD-L1 Homogeneous Time-Resolved Fluorescence (HTRF) binding assay
Settings: recombinant human PD-L1 (19-238)-His 10 nM, human PD-1 (25-167)-Fc 3 nM, 25° C., PBS pH 7.4
Procedure: Example A. PD-1/PD-L1 Homogeneous Time-Resolved Fluorescence (HTRF) Binding Assay
The assays were conducted in a standard black 384-well polystyrene plate with a final volume of 20 μL. Inhibitors were first serially diluted in DMSO and then added to the plate wells before the addition of other reaction components. The final concentration of DMSO in the assay was 1%. The assays were carried out at 25° C. in the PBS buffer (pH 7.4) with 0.05% Tween-20 and 0.1% BSA. Recombinant human PD-L1 protein (19-238) with a His-tag at the C-terminus was purchased from AcroBiosystems (PD1-H5229). Recombinant human PD-1 protein (25-167) with Fc tag at the C-terminus was also purchased from AcroBiosystems (PD1-H5257). PD-L1 and PD-1 proteins were diluted in the assay buffer and 10 μL was added to the plate well. Plates were centrifuged and proteins were preincubated with inhibitors for 40 minutes. The incubation was followed by the addition of 10 μL of HTRF detection buffer supplemented with Europium cryptate-labeled anti-human IgG (PerkinElmer-AD0212) specific for Fc and anti-His antibody conjugated to SureLight®-Allophycocyanin (APC, PerkinElmer-AD0059H). After centrifugation, the plate was incubated at 25° C. for 60 min. before reading on a PHERAstar FS plate reader (665 nm/620 nm ratio). Final concentrations in the assay were—3 nM PD1, 10 nM PD-L1, 1 nM europium anti-human IgG and 20 nM anti-His-Allophycocyanin. IC50 determination was performed by fitting the curve of percent control activity versus the log of the inhibitor concentration using the GraphPad Prism 5.0 software.

T1 sequence (Q9NZQ7 19-238): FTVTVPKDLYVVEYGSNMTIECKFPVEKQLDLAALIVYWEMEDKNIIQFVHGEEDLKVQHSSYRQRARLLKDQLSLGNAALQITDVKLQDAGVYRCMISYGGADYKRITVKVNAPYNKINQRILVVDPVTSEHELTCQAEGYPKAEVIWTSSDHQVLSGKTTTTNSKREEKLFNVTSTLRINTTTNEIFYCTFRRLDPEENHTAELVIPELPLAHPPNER

`CCN(C)CC(=O)N1Cc2nc(-c3cccc(-c4cccc(N5CCn6cncc6C5)c4C)c3C)sc2C1` [Example 38, 1-(2-(3′-(5,6-dihydroimidazo[1,5-a]pyrazin-7(8H)-yl)-2,2′-dimethylbiphenyl-3-yl)-4H-pyrrolo[3,4-d]thiazol-5(6H)-yl)-2-(ethyl(methyl)amino)ethanone] gave an IC50 of 10 to 100 nM.

For `Cc1c(-c2ccccc2)cccc1-c1ccc2c(c1)CNC2` [Example 5, 5-(2-methylbiphenyl-3-yl)isoindoline], the IC50 was 10 to 100 nM.

In the case of `NCc1ccc(-c2cccc(-c3ccccc3)c2Cl)cn1` [Example 6, (5-(2-chlorobiphenyl-3-yl)pyridin-2-yl)methanamine], the IC50 is reported as 10 to 100 nM.

`Cc1c(-c2ccccc2)ccnc1-c1ccc(CN)cc1` [Example 21, (4-(3-methyl-4-phenylpyridin-2-yl)phenyl)methanamine] showed an IC50 of 100 to 1000 nM.

`O[C@H]1CC[C@@H](NCc2ccc(N3CCCC(c4ccccc4)C3)cn2)CC1` (stereo partly drawn) [Example 22, Cis-4-((5-(3-phenylpiperidin-1-yl)pyridin-2-yl)methylamino)cyclohexanol] gave an IC50 of 100 to 1000 nM.

`OCC1(CNC2CCN(c3cccc(Nc4ccccc4)c3Cl)CC2)CCC1` [Example 23, (1-((1-(2-chloro-3-(phenylamino)phenyl)piperidin-4-ylamino)methyl)cyclobutyl)methanol] gave an IC50 of 1000 to 2000 nM.

Compound `COc1cccc(-c2cccc(Nc3ncccc3C(=O)NCCNCCO)c2C)c1F` [Example 39, 2-(2′-fluoro-3′-methoxy-2-methylbiphenyl-3-ylamino)-N-(2-(2-hydroxyethylamino)ethyl)nicotinamide] has an IC50 of 100 to 1000 nM.

Compound `O=C(Nc1ccc2cnc(-c3ccccc3)cc2c1Cl)c1ccc(CNCCO)cn1` [Example 12, N-(5-chloro-3-phenylisoquinolin-6-yl)-5-((2-hydroxyethylamino)methyl) picolinamide] has an IC50 of 100 to 1000 nM.

With `Cc1c(/C=C/c2ccc(CN3CCCC[C@@H]3C(=O)O)cn2)cccc1-c1ccccc1` [Example 8, (R,E)-1-((6-(2-(2-methyl-[1,1′-biphenyl]-3-yl)vinyl)pyridin-3-yl)methyl)piperidine-2-carboxylic acid] the IC50 was 10 to 100 nM.

For `OCC1(CNC2CCN(c3cccc(NCc4ccccc4)c3Cl)CC2)CCC1` [Example 24, (1-((1-(3-(benzylamino)-2-chlorophenyl)piperidin-4-ylamino)methyl)cyclobutyl)methanol], the IC50 was 100 to 1000 nM.

`Cc1c(-c2ccccc2)cccc1-c1cnc2c(c1)CNC2` [Example 17, 3-(2-methylbiphenyl-3-yl)-6,7-dihydro-5H-pyrrolo[3,4-b]pyridine] gave an IC50 of 100 to 1000 nM.

Compound `COc1cccc(-c2cccc(Nc3nccc(CNCCO)c3F)c2Cl)c1F` [Example 3, 2-((2-(2-chloro-2′-fluoro-3′-methoxybiphenyl-3-ylamino)-3-fluoropyridin-4-yl)methylamino)ethanol] has an IC50 of at most 10 nM.

`Cc1c(-c2ccccc2)cccc1-c1cnn(C[C@@H]2CCCN2)c1` [Example 2, 4-(2-methylbiphenyl-3-yl)-1-[(2S)-pyrrolidin-2-ylmethyl]-1H-pyrazole] gave an IC50 of 10 to 100 nM.

Compound `Cc1c(-c2ccccc2)cccc1-c1ccc2c(c1)CCC(CN(C)C)O2` (centres unmarked) [Example 16, N,N-dimethyl-1-(6-(2-methylbiphenyl-3-yl)chroman-2-yl)methanamine] has an IC50 of 100 to 1000 nM.

Compound `Cc1c(Nc2nsc3nccnc23)cccc1-c1ccccc1` [Example 25, N-(2-methylbiphenyl-3-yl)isothiazolo[4,5-b]pyrazin-3-amine] has an IC50 of 100 to 1000 nM.

`COc1cccc(-c2cccc(Nc3nccn4c(CNCCO)cnc34)c2C)c1F` [Example 9, 2-(((8-((2′-fluoro-3′-methoxy-2-methyl-[1,1′-biphenyl]-3-yl)amino)imidazo[1,2-a]pyrazin-3-yl)methyl)amino)ethan-1-ol] gave an IC50 of 10 to 100 nM.

`Cc1c(-c2ccccc2)cccc1-c1ccc(CNCCO)cc1` [Example 7, 2-{[(2′-methyl-1,1′:3′,1″-terphenyl-4-yl)methyl]amino}ethanol] was tested, and the IC50 was 10 to 100 nM.

In the case of `Cc1c(-c2ccccc2)cccc1-c1cnc2c(c1)CNCC2` [Example 20, 3-(2-methylbiphenyl-3-yl)-5,6,7,8-tetrahydro-1,6-naphthyridine], the IC50 is reported as 100 to 1000 nM.

`Cc1c(-c2nc3c(s2)CN(C(=O)CN(C)C)C3)cccc1-c1cccc(-c2nc3c(s2)CN(C(=O)CN2CC[C@@H](O)C2)C3)c1C` [Example 35, (R)-2-(dimethylamino)-1-(2-(3′-(5-(2-(3-hydroxypyrrolidin-1-yl)acetyl)-5,6-dihydro-4H-pyrrolo[3,4-d]thiazol-2-yl)-2,2′-dimethylbiphenyl-3-yl)-4H-pyrrolo[3,4-d]thiazol-5(6H)-yl)ethanone] showed an IC50 of at most 10 nM.

`Cc1c(-c2ccccc2)cccc1N1CCC2(CCCC(=O)N2)CC1` [Example 30, 9-(2-methylbiphenyl-3-yl)-1,9-diazaspiro[5.5]undecan-2-one] gave an IC50 of 100 to 1000 nM.

Compound `Cc1c(C2=CCC(N3CCCC3)CC2)cccc1-c1ccccc1` (centres unmarked) [Example 32, 1-(4-(2-methylbiphenyl-3-yl)cyclohex-3-enyl)pyrrolidine] has an IC50 of 100 to 1000 nM.

Compound `CCN(C)CC(=O)N1Cc2nc(-c3cccc(-c4cccc(N5CCC6NCCC6C5)c4C)c3C)sc2C1` (centres unmarked) [Example 37, 1-(2-(2,2′-dimethyl-3′-(tetrahydro-1H-pyrrolo[3,2-c]pyridin-5(6H,7H,7aH)-yl)biphenyl-3-yl)-4H-pyrrolo[3,4-d]thiazol-5(6H)-yl)-2-(ethyl(methyl)amino)ethanone] has an IC50 of 100 to 1000 nM.

Work on `Cc1c(-c2ccccc2)cccc1N1CCC[C@@H](N)C1` [Example 26, (R)-1-(2-methylbiphenyl-3-yl)piperidin-3-amine] yielded an IC50 of 100 to 1000 nM.

With `OCCNCc1ccc(CN2CCc3c(-c4ccccc4)cccc32)c(Cl)c1` [Example 40, 2-({3-chloro-4-[(4-phenyl-2,3-dihydro-1H-indol-1-yl)methyl]benzyl}amino)ethanol] the IC50 was 100 to 1000 nM.

`Cc1cc(CN2CCCC[C@H]2C(=O)O)ccc1OC1CCc2c(-c3ccccc3)cccc21` (stereo partly drawn) [Example 10, (2S)-1-(3-methyl-4-(4-phenyl-2,3-dihydro-1H-inden-1-yloxy)benzyl)piperidine-2-carboxylic acid] was tested, and the IC50 was 100 to 1000 nM.

`CCN(C)CC(=O)N1Cc2nc(-c3cccc(-c4cccc(C#CC5CCNCC5)c4C)c3C)sc2C1` [Example 36, 1-(2-(2,2′-dimethyl-3′-(piperidin-4-ylethynyl)biphenyl-3-yl)-4H-pyrrolo[3,4-d]thiazol-5(6H)-yl)-2-(ethyl(methyl)amino)ethanone] was tested, and the IC50 was at most 10 nM.

`Cc1c(-c2ccccc2)cccc1-c1ccc2nc(CN3CCCC[C@H]3C(=O)O)cc(C)c2c1` [Example 4, (S)-1-((4-methyl-6-(2-methylbiphenyl-3-yl)quinolin-2-yl)methyl)piperidine-2-carboxylic acid] gave an IC50 of 10 to 100 nM.

With `Cc1c(-c2ccccc2)cccc1N1CCC(CN)CC1` [Example 27, (1-(2-methylbiphenyl-3-yl)piperidin-4-yl)methanamine] the IC50 was 100 to 1000 nM.

Compound `Cc1c(-c2ccccc2)cccc1N1CCC2(CCCCN2)CC1` [Example 31, 9-(2-methylbiphenyl-3-yl)-1,9-diazaspiro[5.5]undecane] has an IC50 of 100 to 1000 nM.

With `Cc1c(NC(=O)N2CCCC(N)C2)cccc1-c1ccccc1` (centres unmarked) [Example 33, 3-amino-N-(2-methylbiphenyl-3-yl)piperidine-1-carboxamide] the IC50 was 1000 to 2000 nM.

`Cc1c(Oc2ncnc3c(CNCCO)csc23)cccc1-c1ccccc1` [Example 1, 2-((4-(2-methylbiphenyl-3-yloxy)thieno[3,2-d]pyrimidin-7-yl)methylamino)ethanol] was tested, and the IC50 was 10 to 100 nM.

Compound `Cc1c(-c2ccccc2)cccc1N1CCc2cc(CNCCO)ccc2C1` [Example 14, 2-((2-(2-methylbiphenyl-3-yl)-1,2,3,4-tetrahydroisoquinolin-6-yl)methylamino)ethanol] has an IC50 of 100 to 1000 nM.

`N#Cc1c(-c2ccccc2)csc1Nc1nccc2cc(CNCCO)cnc12` [Example 34, 2-[(3-{[(2-hydroxyethyl)amino]methyl}-1,7-naphthyridin-8-yl)amino]-4-phenylthiophene-3-carbonitrile] was tested, and the IC50 was 100 to 1000 nM.

For `Cc1c(NCC2CCCNC2)cccc1-c1ccccc1` (centres unmarked) [Example 28, 2-methyl-N-(piperidin-3-ylmethyl)biphenyl-3-amine], the IC50 was 1000 to 2000 nM.

For `Cc1c(-c2ccccc2)cccc1N1Cc2ccc(CNCCO)cc2C1` [Example 19, 2-((2-(2-methylbiphenyl-3-yl)isoindolin-5-yl)methylamino)ethanol], the IC50 was 100 to 1000 nM.

Compound `Cc1c(-c2ccccc2)cccc1N1CC[C@H](CN)C1` [Example 29, (R)-(1-(2-methylbiphenyl-3-yl)pyrrolidin-3-yl)methanamine] has an IC50 of 1000 to 2000 nM.

Compound `Cc1c(-c2ccccc2)cccc1-c1ccc2c(c1)CCNC2` [Example 13, 6-(2-methylbiphenyl-3-yl)-1,2,3,4-tetrahydroisoquinoline] has an IC50 of 10 to 100 nM.

`Cc1c(Nc2ccc3c(c2)CCN(C(CO)CO)C3)cccc1-c1ccccc1` [Example 18, 2-(6-(2-methylbiphenyl-3-ylamino)-3,4-dihydroisoquinolin-2(1H)-yl)propane-1,3-diol] was tested, and the IC50 was 100 to 1000 nM.
